Results: patent US8658655B2, “Inhibition of activated cdc42-associated kinase 1” (Fox Chase Cancer Center, priority 2011, dated 2014)
“Also recorded” adds a separate entry of the source. Blank lines part the entries; values can stand above or below the molecule they belong to.

Tests used:
[1] = system: Ack1 autophosphorylation (Tyr284); assay: Ack1 autophosphorylation in HEK293 cells (Western blot phospho-Ack1); assay type: cell-based; conditions: HEK293 cells expressing Ack1
Text: (§1) Thus, this Example proposed derivatives of compound 1 that inhibit Ack1 in the cellular context while retaining its target specificity.

[2] = target: T1, Ack1 (Homo sapiens, UniProt Q07912); assay: Ack1 dose-response radiometric peptide kinase assay; assay type: biochemical
Description: 40 ng of recombinant Ack1 was incubated with saturating quantities of peptide substrate ([…] (SEQ ID NO:1) and in the presence of a compound in Ack1 kinase buffer (20 mM Tris pH 7.4, 10 mM MgCl2, 0.1 mM NaVO4, 0.5 mM dithiothreitol). [^32P]-γ-ATP was added in a total concentration of 10 μM ATP to initiate the reaction. Following 30 minute incubation at 30° C., phosphorylated peptide substrate was captured by spotting the reaction on P81 cationic filter paper and unincorporated [^32P]-γ-ATP was removed by washing in a solution of phosphoric acid. Phosphorylated peptide was then quantified by autoradiography or by Phosphorlmager analysis or by scintillation counting.
as §1
Target sequence in this assay (Q07912 whole entry): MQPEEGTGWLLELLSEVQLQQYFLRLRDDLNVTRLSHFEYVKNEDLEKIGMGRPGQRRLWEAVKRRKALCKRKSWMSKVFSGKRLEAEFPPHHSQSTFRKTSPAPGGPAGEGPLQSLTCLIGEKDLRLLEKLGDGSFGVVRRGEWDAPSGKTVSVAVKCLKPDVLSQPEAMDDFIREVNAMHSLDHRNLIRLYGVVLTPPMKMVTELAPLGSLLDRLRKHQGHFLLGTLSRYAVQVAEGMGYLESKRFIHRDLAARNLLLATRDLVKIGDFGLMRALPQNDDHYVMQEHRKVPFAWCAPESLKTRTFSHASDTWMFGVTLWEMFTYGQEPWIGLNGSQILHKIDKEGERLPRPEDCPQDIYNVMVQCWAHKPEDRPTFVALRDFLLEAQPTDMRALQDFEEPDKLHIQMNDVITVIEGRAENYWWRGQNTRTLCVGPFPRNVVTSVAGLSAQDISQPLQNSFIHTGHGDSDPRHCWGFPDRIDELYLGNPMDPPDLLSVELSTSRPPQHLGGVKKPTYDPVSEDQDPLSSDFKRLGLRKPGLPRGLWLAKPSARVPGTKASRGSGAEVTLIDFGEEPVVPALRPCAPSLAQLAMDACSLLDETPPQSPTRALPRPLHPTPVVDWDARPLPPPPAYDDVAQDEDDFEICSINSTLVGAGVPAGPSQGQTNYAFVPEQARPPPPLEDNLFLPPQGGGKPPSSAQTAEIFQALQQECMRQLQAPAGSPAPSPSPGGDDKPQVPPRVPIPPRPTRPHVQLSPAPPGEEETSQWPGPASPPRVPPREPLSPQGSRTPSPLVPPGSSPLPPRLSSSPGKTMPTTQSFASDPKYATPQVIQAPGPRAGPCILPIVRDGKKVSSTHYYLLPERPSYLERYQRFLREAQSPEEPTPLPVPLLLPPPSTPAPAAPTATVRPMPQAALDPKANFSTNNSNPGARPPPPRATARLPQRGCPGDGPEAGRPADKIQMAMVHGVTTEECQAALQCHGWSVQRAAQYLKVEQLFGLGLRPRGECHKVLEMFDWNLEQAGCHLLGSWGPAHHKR

[3] = target: non-receptor tyrosine kinase BRK (Homo sapiens, UniProt Q13882); assay: Kinase panel screen at 500 nM: BRK; assay type: biochemical; conditions: 500 nM compound, 10 μM ATP
Sequence of non-receptor tyrosine kinase BRK (Q13882 whole entry): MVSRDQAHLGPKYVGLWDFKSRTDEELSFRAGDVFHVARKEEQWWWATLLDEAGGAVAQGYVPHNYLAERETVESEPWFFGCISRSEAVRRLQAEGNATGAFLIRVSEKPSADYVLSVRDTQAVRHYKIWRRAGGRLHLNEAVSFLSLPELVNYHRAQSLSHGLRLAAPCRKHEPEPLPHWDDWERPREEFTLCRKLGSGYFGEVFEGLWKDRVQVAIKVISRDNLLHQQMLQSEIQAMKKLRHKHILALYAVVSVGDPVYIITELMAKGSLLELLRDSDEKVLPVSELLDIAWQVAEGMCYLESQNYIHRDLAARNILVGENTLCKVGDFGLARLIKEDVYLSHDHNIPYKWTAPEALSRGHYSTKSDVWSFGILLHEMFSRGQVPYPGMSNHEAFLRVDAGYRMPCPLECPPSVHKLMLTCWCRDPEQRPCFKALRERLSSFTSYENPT
Text: (§2) Disparate replicates were eliminated from the analysis.

[4] = target: T1, Ack1; assay: Kinase panel screen at 500 nM: Ack1; assay type: biochemical; design: only the kinase domain of Ack1 and a limited additional region C-terminal (amino acids 110-476); conditions: 500 nM compound, 10 μM ATP; for inhibition at 0.5 µM: duplicate, read-out: inhibition of Ack1 catalytic activity
Target sequence in this assay (Q07912 110-476): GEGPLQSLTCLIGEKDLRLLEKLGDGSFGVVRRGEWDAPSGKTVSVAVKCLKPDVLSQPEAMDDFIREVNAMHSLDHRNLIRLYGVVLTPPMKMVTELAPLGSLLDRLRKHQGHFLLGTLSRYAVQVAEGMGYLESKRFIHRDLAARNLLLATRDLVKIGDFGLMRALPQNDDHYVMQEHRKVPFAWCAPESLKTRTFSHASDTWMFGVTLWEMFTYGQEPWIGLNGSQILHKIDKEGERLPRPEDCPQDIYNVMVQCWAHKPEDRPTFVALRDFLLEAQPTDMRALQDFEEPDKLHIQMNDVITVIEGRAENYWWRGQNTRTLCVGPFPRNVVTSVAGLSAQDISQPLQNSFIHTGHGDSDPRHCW
Description: Each inhibitor was tested in duplicate at 500 nM against each kinase using radiolabeled ATP (10 μM total ATP) and a peptide or protein substrate.

[5] = system: panel of 300 protein kinases; assay: Kinase selectivity across panel of 300 kinases (Gini coefficient); assay type: biochemical, human; conditions: 500 nM
Description: as §2
The data were analyzed for compounds that inhibit Ack1. […] Inhibitor selectivity was quantitatively assessed using the Gini coefficient (Piotr P et al. (2007) J. Med. Chem., 50:5773-9; and, Lynette A et al. (2009) J. Chem. Biol. 2:131-51).

[6] = system: Aurora; conditions: Heron et al. 2006; cited from earlier work
[7] = target: Aurora B (Homo sapiens, UniProt Q96GD4); assay: Kinase panel screen at 500 nM: Aurora B; assay type: biochemical; conditions: 500 nM compound, 10 μM ATP
Sequence of Aurora B (Q96GD4 whole entry): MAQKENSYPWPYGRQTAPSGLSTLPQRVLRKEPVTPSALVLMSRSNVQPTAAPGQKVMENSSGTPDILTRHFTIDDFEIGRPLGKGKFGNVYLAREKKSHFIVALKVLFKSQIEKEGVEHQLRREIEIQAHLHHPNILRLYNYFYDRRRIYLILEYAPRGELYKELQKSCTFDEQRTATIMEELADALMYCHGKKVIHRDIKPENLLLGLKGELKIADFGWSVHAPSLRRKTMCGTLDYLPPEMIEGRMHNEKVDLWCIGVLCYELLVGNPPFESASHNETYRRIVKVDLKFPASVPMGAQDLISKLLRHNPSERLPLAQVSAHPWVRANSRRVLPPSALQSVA
Text: as §2

[8] = system: Aurora; conditions: Heron et al. 2006; cited from earlier work; remark: listed apart in the source
[9] = target: RET (Homo sapiens, UniProt P07949); assay: Kinase panel screen at 500 nM: RET; assay type: biochemical; conditions: 500 nM compound, 10 μM ATP
Sequence of RET (P07949 29-1114): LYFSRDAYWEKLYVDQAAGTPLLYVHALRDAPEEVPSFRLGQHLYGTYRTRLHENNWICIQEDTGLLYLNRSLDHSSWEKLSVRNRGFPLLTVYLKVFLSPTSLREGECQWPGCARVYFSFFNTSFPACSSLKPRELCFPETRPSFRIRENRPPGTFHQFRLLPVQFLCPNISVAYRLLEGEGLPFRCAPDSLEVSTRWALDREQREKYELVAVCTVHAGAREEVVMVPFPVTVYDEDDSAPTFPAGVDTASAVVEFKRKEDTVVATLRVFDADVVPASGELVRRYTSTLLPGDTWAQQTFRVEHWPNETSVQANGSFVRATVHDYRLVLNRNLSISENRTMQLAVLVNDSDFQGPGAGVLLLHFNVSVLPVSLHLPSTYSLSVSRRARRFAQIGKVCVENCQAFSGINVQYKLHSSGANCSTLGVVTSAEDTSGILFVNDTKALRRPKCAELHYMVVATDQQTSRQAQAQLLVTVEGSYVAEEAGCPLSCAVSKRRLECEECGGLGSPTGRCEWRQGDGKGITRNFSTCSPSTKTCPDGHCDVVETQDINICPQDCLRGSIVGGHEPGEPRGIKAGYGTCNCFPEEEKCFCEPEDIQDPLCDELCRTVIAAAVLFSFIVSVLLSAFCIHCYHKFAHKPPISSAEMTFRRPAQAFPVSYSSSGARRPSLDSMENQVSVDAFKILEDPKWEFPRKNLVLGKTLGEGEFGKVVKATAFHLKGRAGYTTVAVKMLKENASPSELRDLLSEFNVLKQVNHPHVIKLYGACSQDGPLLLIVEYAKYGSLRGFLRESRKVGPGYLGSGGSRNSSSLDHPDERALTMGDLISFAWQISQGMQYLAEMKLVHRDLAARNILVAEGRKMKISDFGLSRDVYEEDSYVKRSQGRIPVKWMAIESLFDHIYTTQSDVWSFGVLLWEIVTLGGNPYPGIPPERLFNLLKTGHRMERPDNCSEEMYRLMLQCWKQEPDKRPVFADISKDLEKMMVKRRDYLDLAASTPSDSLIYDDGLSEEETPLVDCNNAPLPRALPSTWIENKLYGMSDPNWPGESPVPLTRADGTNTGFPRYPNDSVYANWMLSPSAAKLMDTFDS
Text: as §2

[10] = system: JAK1/2; assay: Kinase panel screen at 500 nM: JAK1/2; assay type: biochemical, human; conditions: 500 nM compound, 10 μM ATP
Text: (§3) To directly test the kinase selectivity of a large number of established kinase inhibitors, high throughput kinase assays were employed against a panel of ^˜300 recombinant human protein kinases. An economical method based on conventional filter-binding assays was used at a nanoliter scale using radiolabeled ATP that directly measures kinase catalytic activity toward a polypeptide and/or protein substrate. […] The library of inhibitors comprises 160 pure compounds known to inhibit kinases representing all major protein kinase families, as well as a limited number of compounds that were not developed to target protein kinases (FIG. 1A).
(§4) The kinase panel tested represents all major human protein kinase. For simplicity, all compounds were tested at a concentration of 0.5 μM in the presence of 10 μM ATP.
(§5) Each kinase-inhibitor pair was tested in duplicate and results were expressed as percent remaining kinase activity compared to solvent (DMSO) control reactions. Disparate replicates were eliminated from the analysis.
(§6) As described above, a large-scale parallel screening of a collection of 160 known kinase inhibitors was conducted against a panel of 294-300 recombinant human protein kinases. Goals included the identification of novel inhibitor scaffolds for new kinase targets and the revelation of the target specificities of this panel of research compounds. […]

[11] = target: T2, FLT3 (Homo sapiens, UniProt P36888); assay: Kinase panel screen at 500 nM: FLT3; assay type: biochemical; conditions: 500 nM compound, 10 μM ATP
T2 sequence (P36888 27-993): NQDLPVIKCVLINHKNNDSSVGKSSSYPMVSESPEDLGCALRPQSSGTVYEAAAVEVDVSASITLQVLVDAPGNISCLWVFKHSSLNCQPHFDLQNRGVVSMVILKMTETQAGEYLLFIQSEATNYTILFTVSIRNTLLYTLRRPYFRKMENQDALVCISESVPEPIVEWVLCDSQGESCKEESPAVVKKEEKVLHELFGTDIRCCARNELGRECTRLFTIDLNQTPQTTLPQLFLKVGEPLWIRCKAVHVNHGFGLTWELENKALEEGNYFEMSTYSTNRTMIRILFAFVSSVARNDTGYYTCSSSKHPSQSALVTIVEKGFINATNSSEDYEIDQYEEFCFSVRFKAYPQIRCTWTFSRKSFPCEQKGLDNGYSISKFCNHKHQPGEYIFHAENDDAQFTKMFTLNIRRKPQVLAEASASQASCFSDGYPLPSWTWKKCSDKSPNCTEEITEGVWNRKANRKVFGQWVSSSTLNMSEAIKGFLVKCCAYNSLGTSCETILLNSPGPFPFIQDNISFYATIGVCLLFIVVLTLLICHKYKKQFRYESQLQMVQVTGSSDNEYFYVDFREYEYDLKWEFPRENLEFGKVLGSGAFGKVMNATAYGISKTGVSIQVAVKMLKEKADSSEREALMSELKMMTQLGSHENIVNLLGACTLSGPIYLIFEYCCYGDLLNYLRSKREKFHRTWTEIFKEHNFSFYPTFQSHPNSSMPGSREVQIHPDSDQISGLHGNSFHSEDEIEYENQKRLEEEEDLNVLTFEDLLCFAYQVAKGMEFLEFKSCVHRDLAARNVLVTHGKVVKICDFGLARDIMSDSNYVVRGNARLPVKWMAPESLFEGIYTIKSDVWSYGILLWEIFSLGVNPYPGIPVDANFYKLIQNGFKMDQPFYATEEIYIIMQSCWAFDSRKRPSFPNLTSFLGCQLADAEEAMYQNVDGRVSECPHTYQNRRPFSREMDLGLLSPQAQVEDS
Text: as §2

[12] = target: T3, IKK-2 (Homo sapiens, UniProt O14920); assay: Kinase panel screen at 500 nM: IKK-2; assay type: biochemical; conditions: 500 nM compound, 10 μM ATP
T3 sequence (O14920 1-756): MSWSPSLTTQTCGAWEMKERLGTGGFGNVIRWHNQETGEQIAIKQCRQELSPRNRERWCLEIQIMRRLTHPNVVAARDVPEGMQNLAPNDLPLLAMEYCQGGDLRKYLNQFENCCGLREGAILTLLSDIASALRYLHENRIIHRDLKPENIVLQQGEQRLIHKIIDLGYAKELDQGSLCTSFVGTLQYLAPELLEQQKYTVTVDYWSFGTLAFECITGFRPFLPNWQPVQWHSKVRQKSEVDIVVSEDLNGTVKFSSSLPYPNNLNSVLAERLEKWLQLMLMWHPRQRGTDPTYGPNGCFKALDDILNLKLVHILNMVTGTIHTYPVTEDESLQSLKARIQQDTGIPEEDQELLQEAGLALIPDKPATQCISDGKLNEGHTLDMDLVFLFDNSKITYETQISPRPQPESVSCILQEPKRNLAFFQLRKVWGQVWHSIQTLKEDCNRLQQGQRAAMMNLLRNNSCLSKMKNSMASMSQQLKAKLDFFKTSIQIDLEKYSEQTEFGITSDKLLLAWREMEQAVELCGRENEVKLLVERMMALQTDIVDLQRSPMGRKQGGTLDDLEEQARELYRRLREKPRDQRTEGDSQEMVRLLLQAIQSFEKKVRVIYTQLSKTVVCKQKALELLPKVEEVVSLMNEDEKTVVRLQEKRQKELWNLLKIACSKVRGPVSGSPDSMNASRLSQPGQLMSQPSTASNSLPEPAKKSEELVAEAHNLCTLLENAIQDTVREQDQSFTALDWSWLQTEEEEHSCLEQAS
Text: as §3, §4, §5, §6

[13] = target: Tyk2 (Homo sapiens, UniProt P29597); assay: Kinase panel screen at 500 nM: Tyk2; assay type: biochemical; conditions: 500 nM compound, 10 μM ATP
Sequence of Tyk2 (P29597 whole entry): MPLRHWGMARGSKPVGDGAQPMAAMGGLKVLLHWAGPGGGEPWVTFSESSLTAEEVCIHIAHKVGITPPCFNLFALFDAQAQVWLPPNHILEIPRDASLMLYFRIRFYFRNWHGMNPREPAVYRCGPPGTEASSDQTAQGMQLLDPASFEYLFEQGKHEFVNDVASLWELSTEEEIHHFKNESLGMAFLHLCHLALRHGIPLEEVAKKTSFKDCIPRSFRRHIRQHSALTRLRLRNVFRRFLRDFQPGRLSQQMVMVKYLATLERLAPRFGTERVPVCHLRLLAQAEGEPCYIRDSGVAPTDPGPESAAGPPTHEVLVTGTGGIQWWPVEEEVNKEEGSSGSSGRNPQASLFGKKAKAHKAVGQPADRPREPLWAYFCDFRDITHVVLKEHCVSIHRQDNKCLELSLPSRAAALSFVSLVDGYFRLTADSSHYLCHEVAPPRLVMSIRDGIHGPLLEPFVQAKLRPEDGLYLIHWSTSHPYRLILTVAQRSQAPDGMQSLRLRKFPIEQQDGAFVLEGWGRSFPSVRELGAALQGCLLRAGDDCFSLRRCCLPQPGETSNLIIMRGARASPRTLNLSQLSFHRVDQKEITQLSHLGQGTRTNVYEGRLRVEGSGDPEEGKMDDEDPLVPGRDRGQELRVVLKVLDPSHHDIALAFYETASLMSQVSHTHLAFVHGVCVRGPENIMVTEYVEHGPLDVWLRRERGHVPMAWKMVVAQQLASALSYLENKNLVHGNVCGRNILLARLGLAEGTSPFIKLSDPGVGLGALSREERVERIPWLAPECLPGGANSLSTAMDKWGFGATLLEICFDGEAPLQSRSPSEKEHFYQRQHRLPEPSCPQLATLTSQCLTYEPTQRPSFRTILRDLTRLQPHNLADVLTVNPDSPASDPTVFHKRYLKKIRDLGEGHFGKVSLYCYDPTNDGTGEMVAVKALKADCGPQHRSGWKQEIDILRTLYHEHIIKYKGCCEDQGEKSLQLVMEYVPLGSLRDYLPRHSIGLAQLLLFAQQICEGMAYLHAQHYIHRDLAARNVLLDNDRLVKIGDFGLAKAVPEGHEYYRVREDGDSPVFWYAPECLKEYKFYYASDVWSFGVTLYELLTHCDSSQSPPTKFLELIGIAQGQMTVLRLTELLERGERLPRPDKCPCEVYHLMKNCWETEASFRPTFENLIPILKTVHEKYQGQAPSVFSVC
Text: as §2

Structure (SMILES): COc1cc2c(Nc3ccc(NC(=O)c4ccccc4)cc3)ncnc2cc1OCCCN1CCOCC1 [Compound 1.1]
inhibition of Ack1 autophosphorylation in cells [1]: potently inhibited Ack1 autophosphorylation in cells; also recorded: inhibits Ack1 in cells
in vitro Ack1 activity compared to compound 1 ([2]; data not shown): comparable in vitro activity to compound 1

inhibition at 0.5 µM [3]: > 50%
inhibition at 0.5 µM [4]: 95%
kinase selectivity for Ack1 over other kinases [5]: unusually selective
inhibition at 0.5 µM [7]: 75%
IC50 ([2]; dose-response, 10 μM ATP, read-out: IC50 against Ack1 in vitro): 5 nM
Structure (SMILES): COc1cc2ncnc(Nc3ccc(NC(=O)c4ccccc4)cc3)c2cc1OC [Compound 1]
inhibition of Ack1 autophosphorylation in cells [1]: did not reduce Ack1 autophosphorylation
in vitro activity against Aurora [6]: good in vitro activity
cellular efficacy against Aurora [8]: poor cellular efficacy

inhibition of catalytic activity of RET [9]: partial inhibition
inhibition of catalytic activity of JAK1/2 [10]: partial inhibition
inhibition at 0.5 µM [4]: 94%
inhibition of catalytic activity of FLT3 [11]: partial inhibition
inhibition at 0.5 µM [12]: 91%
inhibition of catalytic activity of Tyk2 [13]: partial inhibition
Structure (SMILES): NC(=O)Nc1sc(-c2ccc(F)cc2)cc1C(N)=O [Compound 3]

Structure (SMILES): CN[C@@H]1C[C@H]2O[C@@](C)([C@@H]1OC)n1c3ccccc3c3c4c(c5c6ccccc6n2c5c31)C(=O)NC4 [staurosporine, reference compound]
inhibition of Ack1 in the screen [4]: inhibited Ack1 in addition to many other kinases
